Columns and labels:
Assay type in all cases: functional
Settings in all cases: values are per cent of control
[1] = test system: SF-539; experiment: Antiproliferative activity against human SF539 cells at 10 uM assessed as cell growth inhibition relative to control
[2] = test system: ACHN; experiment: Antiproliferative activity against human ACHN cells at 10 uM assessed as cell growth inhibition relative to control
[3] = test system: HCT-116; experiment: Antiproliferative activity against human HCT116 cells at 10 uM assessed as cell growth inhibition relative to control
[4] = test system: M14; experiment: Antiproliferative activity against human M14 cells at 10 uM assessed as cell growth inhibition relative to control
[5] = test system: DU-145; experiment: Antiproliferative activity against human DU145 cells at 10 uM assessed as cell growth inhibition relative to control
[6] = Antiproliferative activity against human Hs 578T cells at 10 uM assessed as cell growth inhibition relative to control
[7] = test system: SK-MEL-28; experiment: Antiproliferative activity against human SK-MEL-28 cells at 10 uM assessed as cell growth inhibition relative to control
[8] = test system: MDA-MB-468; experiment: Antiproliferative activity against human MDA-MB-468 cells at 10 uM assessed as cell growth inhibition relative to control
[9] = test system: BT-549; experiment: Antiproliferative activity against human BT549 cells at 10 uM assessed as cell growth inhibition relative to control
[10] = test system: CAKI-1; experiment: Antiproliferative activity against human Caki1 cells at 10 uM assessed as cell growth inhibition relative to control
[11] = test system: UACC-62; experiment: Antiproliferative activity against human UACC62 cells at 10 uM assessed as cell growth inhibition relative to control
[12] = test system: SK-MEL-5; experiment: Antiproliferative activity against human SK-MEL-5 cells at 10 uM assessed as cell growth inhibition relative to control
[13] = test system: SF-295; experiment: Antiproliferative activity against human SF295 cells at 10 uM assessed as cell growth inhibition relative to control
[14] = test system: U-251; experiment: Antiproliferative activity against human U251 cells at 10 uM assessed as cell growth inhibition relative to control
[15] = test system: MOLT-4; experiment: Antiproliferative activity against human MOLT4 cells at 10 uM assessed as cell growth inhibition relative to control
[16] = test system: SF-268; experiment: Antiproliferative activity against human SF268 cells at 10 uM assessed as cell growth inhibition relative to control
[17] = test system: SK-MEL-2; experiment: Antiproliferative activity against human SK-MEL-2 cells at 10 uM assessed as cell growth inhibition relative to control
[18] = test system: K562; experiment: Antiproliferative activity against human K562 cells at 10 uM assessed as cell growth inhibition relative to control
[19] = test system: HCC 2998; experiment: Antiproliferative activity against human HCC2998 cells at 10 uM assessed as cell growth inhibition relative to control
[20] = test system: TK-10; experiment: Antiproliferative activity against human TK10 cells at 10 uM assessed as cell growth inhibition relative to control
[21] = test system: HT-29; experiment: Antiproliferative activity against human HT-29 cells at 10 uM assessed as cell growth inhibition relative to control
[22] = test system: PC-3; experiment: Antiproliferative activity against human PC3 cells at 10 uM assessed as cell growth inhibition relative to control
[23] = test system: 786-0; experiment: Antiproliferative activity against human 786-0 cells at 10 uM assessed as cell growth inhibition relative to control
[24] = test system: KM12; experiment: Antiproliferative activity against human KM12 cells at 10 uM assessed as cell growth inhibition relative to control
[25] = test system: LOX IMVI; experiment: Antiproliferative activity against human LOXIMVI cells at 10 uM assessed as cell growth inhibition relative to control
[26] = test system: CCRF-CEM; experiment: Antiproliferative activity against human CCRF-CEM cells at 10 uM assessed as cell growth inhibition relative to control
[27] = test system: MCF7; experiment: Antiproliferative activity against human MCF7 cells at 10 uM assessed as cell growth inhibition relative to control
[28] = test system: HOP-62; experiment: Antiproliferative activity against human HOP62 cells at 10 uM assessed as cell growth inhibition relative to control
[29] = test system: COLO 205; experiment: Antiproliferative activity against human COLO205 cells at 10 uM assessed as cell growth inhibition relative to control
[30] = test system: NCI-H226; experiment: Antiproliferative activity against human NCI-H226 cells at 10 uM assessed as cell growth inhibition relative to control
[31] = test system: NCI-H23; experiment: Antiproliferative activity against human NCI-H23 cells at 10 uM assessed as cell growth inhibition relative to control
[32] = test system: A498; experiment: Antiproliferative activity against human A498 cells at 10 uM assessed as cell growth inhibition relative to control
[33] = test system: UACC-257; experiment: Antiproliferative activity against human UACC257 cells at 10 uM assessed as cell growth inhibition relative to control
[34] = test system: MDA-MB-231; experiment: Antiproliferative activity against human MDA-MB-231 cells at 10 uM assessed as cell growth inhibition relative to control
[35] = test system: NCI-H322M; experiment: Antiproliferative activity against human NCI-H322M cells at 10 uM assessed as cell growth inhibition relative to control
[36] = test system: NCI-H522; experiment: Antiproliferative activity against human NCI-H522 cells at 10 uM assessed as cell growth inhibition relative to control
[37] = test system: NCI-H460; experiment: Antiproliferative activity against human NCI-H460 cells at 10 uM assessed as cell growth inhibition relative to control
[38] = Antiproliferative activity against human […] cells at 10 uM assessed as cell growth inhibition relative to control
[39] = test system: HL-60(TB); experiment: Antiproliferative activity against human HL-60(TB) cells at 10 uM assessed as cell growth inhibition relative to control
[40] = test system: OVCAR-5; experiment: Antiproliferative activity against human OVCAR5 cells at 10 uM assessed as cell growth inhibition relative to control
[41] = test system: OVCAR-4; experiment: Antiproliferative activity against human OVCAR4 cells at 10 uM assessed as cell growth inhibition relative to control
[42] = test system: SK-OV-3; experiment: Antiproliferative activity against human SKOV3 cells at 10 uM assessed as cell growth inhibition relative to control
[43] = test system: SW-620; experiment: Antiproliferative activity against human SW620 cells at 10 uM assessed as cell growth inhibition relative to control
[44] = test system: Malme-3M; experiment: Antiproliferative activity against human MALME-3M cells at 10 uM assessed as cell growth inhibition relative to control
[45] = test system: EKVX; experiment: Antiproliferative activity against human EKVX cells at 10 uM assessed as cell growth inhibition relative to control
[46] = test system: SNB-75; experiment: Antiproliferative activity against human SNB75 cells at 10 uM assessed as cell growth inhibition relative to control
[47] = test system: A549; experiment: Antiproliferative activity against human A549 cells at 10 uM assessed as cell growth inhibition relative to control
[48] = test system: SN12C; experiment: Antiproliferative activity against human SN12C cells at 10 uM assessed as cell growth inhibition relative to control
[49] = test system: T47D; experiment: Antiproliferative activity against human T47D cells at 10 uM assessed as cell growth inhibition relative to control
[50] = test system: RXF 393; experiment: Antiproliferative activity against human RXF393 cells at 10 uM assessed as cell growth inhibition relative to control
[51] = test system: HCT-15; experiment: Antiproliferative activity against human HCT15 cells at 10 uM assessed as cell growth inhibition relative to control
[52] = test system: SNB-19; experiment: Antiproliferative activity against human SNB19 cells at 10 uM assessed as cell growth inhibition relative to control
[53] = test system: HOP-92; experiment: Antiproliferative activity against human HOP92 cells at 10 uM assessed as cell growth inhibition relative to control
[54] = test system: OVCAR-3; experiment: Antiproliferative activity against human OVCAR-3 cells at 10 uM assessed as cell growth inhibition relative to control
[55] = test system: UO-31; experiment: Antiproliferative activity against human UO31 cells at 10 uM assessed as cell growth inhibition relative to control
[56] = test system: IGROV-1; experiment: Antiproliferative activity against human IGROV1 cells at 10 uM assessed as cell growth inhibition relative to control
[57] = test system: OVCAR-8; experiment: Antiproliferative activity against human OVCAR8 cells at 10 uM assessed as cell growth inhibition relative to control

## CCOC(=O)C=C1[C@@H](O[Si](C)(C)C(C)(C)C)[C@H](n2cnc3c(N)ncnc32)O[C@@H]1CNC(=O)NC
[1]
  growth, % of control at 10 µM: 92%
[2]
  growth, % of control at 10 µM: 70%
[3]
  growth, % of control at 10 µM: 52%
[4]
  growth, % of control at 10 µM: 87%
[5]
  growth, % of control at 10 µM: 71%
[6]
  growth, % of control at 10 µM: 107%
[7]
  growth, % of control at 10 µM: 111%
[8]
  growth, % of control at 10 µM: 71%
[9]
  growth, % of control at 10 µM: 80%
[10]
  growth, % of control at 10 µM: 85%
[11]
  growth, % of control at 10 µM: 79%
[12]
  growth, % of control at 10 µM: 75%
[13]
  growth, % of control at 10 µM: 88%
[14]
  growth, % of control at 10 µM: 53%
[15]
  growth, % of control at 10 µM: 75%
[16]
  growth, % of control at 10 µM: 98%
[17]
  growth, % of control at 10 µM: 94%
[18]
  growth, % of control at 10 µM: 84%
[19]
  growth, % of control at 10 µM: 71%
[20]
  growth, % of control at 10 µM: 85%
[21]
  growth, % of control at 10 µM: 65%
[22]
  growth, % of control at 10 µM: 93%
[23]
  growth, % of control at 10 µM: 77%
[24]
  growth, % of control at 10 µM: 60%
[25]
  growth, % of control at 10 µM: 74%
[26]
  growth, % of control at 10 µM: 119%
[27]
  growth, % of control at 10 µM: 94%
[28]
  growth, % of control at 10 µM: 99%
[29]
  growth, % of control at 10 µM: 76%
[30]
  growth, % of control at 10 µM: 90%
[31]
  growth, % of control at 10 µM: 99%
[32]
  growth, % of control at 10 µM: 78%
[33]
  growth, % of control at 10 µM: 95%
[34]
  growth, % of control at 10 µM: 81%
[35]
  growth, % of control at 10 µM: 81%
[36]
  growth, % of control at 10 µM: 74%
[37]
  growth, % of control at 10 µM: 110%
[38]
  growth, % of control at 10 µM: 81%
[39]
  growth, % of control at 10 µM: 76%
[40]
  growth, % of control at 10 µM: 88%
[41]
  growth, % of control at 10 µM: 71%
[42]
  growth, % of control at 10 µM: 102%
[43]
  growth, % of control at 10 µM: 88%
[44]
  growth, % of control at 10 µM: 105%
[45]
  growth, % of control at 10 µM: 86%
[46]
  growth, % of control at 10 µM: 98%
[47]
  growth, % of control at 10 µM: 100%
[48]
  growth, % of control at 10 µM: 90%
[49]
  growth, % of control at 10 µM: 79%
[50]
  growth, % of control at 10 µM: 105%
[51]
  growth, % of control at 10 µM: 90%
[52]
  growth, % of control at 10 µM: 88%
[53]
  growth, % of control at 10 µM: 90%
[54]
  growth, % of control at 10 µM: 65%
[55]
  growth, % of control at 10 µM: 76%
[56]
  growth, % of control at 10 µM: 46%
[57]
  growth, % of control at 10 µM: 104%

Reference: ChEMBL document CHEMBL1154382, “Preliminary SAR analysis of novel antiproliferative N(6),5'-bis-ureidoadenosine derivatives” (2009)
